# Assay results published in patent US5260271A, “Nisin compositions for use as enhanced broad range bactericides” (Applied Microbiology, Inc., priority 1992, dated 1993).
# Where no end group is shown, it is not given here.
# Key:
# Listeria monocytogenes [1] = experiment: Bactericidal activity towards Listeria monocytogenes in milk; assay type: cell-based; conditions: L. monocytogenes in milk at 37° C.; Nisin 100 μg/ml, Monooleate 0%
# Protocol: (§1) All tests in the following examples were performed at 37° C. The efficacy of the enhanced broad range bactericides was determined by assaying bactericidal activity as measured by the percent bacterial survival after treatment with the bactericide. Generally, after incubation of a 10^7 cell per ml suspension of target species with the novel bactericide for specified lengths of time, bacteria were collected by centrifugation for 2 minutes. […] Surviving bacteria were determined by scoring colony forming units (CFU) after incubation for 24-48 hours at 37° C. An effective bactericide according to this invention is one which allows less than 0.1% of the initial viable count of the bacteria to survive.
# An example of where the application of nisin is limited by its available activity is illustrated by the data in Table 15B.
# (§2) Incubations were in milk at 37° C.
# S. typhimurium = experiment: Bactericidal activity, percent bacterial survival of S. typhimurium suspension; assay type: cell-based, Salmonella typhimurium; conditions: for Percentage S. typhimurium Survival at 3 hours / % Survival at 2 hours: EDTA 0 mM
# Protocol: as §1, with “C.” for “C. An effective bactericide according to this invention is one which allows less than 0.1% of the initial viable count of the bacteria to survive.”
# The control (Test #1) is identical to the control of Example 1 (Table 1).
# K. pneumoniae = experiment: Bactericidal activity, percent bacterial survival of K. pneumoniae suspension; assay type: cell-based, Klebsiella pneumoniae; conditions: EDTA 0 mM, 20 mM Tris pH 8.0
# Protocol: as §1, with “C.” for “C. An effective bactericide according to this invention is one which allows less than 0.1% of the initial viable count of the bacteria to survive.”
# The effect was measured as a function of percentage bacterial survival after 2 hours.
# [2] = system: S. typhimurium on chicken muscle; experiment: Bactericidal activity towards S. typhimurium on chicken muscle (unadhered cells); assay type: cell-based, Salmonella typhimurium; conditions: chicken muscle, EDTA 0 mM
# Protocol: Incubations were performed in either 50 mM sodium acetate, pH 5.0, or 20 mM Tris, pH 8.0 at 37° C.
# Cubes of chicken muscle were cleansed with sodium hypochlorite and povidone iodine prior to use. To inoculate the tissue, the cubes of chicken muscle were dipped into a 10^8 cells/ml suspension of S. typhimurium in 20 mM Tris HCl, pH 8.0. Excess moisture was removed from dipped cubes by tapping. The chicken samples were placed into sufficient buffer containing the nisin composition to cover the tissue and incubated for 2 hours at 37° C. after which the tissue was removed to sufficient Phage buffer to cover the tissue. The bacteria remaining in the test solution were collected by centrifugation, washed with Phage buffer, and combined with bacteria washed from the tissue by Phage buffer. The combined samples (termed "unadhered" cells) were serially diluted and 100 μl aliquots were plated for determination of surviving bacteria.
# (§3) Cubes of chicken muscle were cleansed with sodium hypochlorite and povidone iodine prior to use. To inoculate the tissue, the cubes of chicken muscle were dipped into a 10^8 cells/ml suspension of S. typhimurium in 20 mM Tris HCl, pH 8.0. Excess moisture was removed from dipped cubes by tapping. The tissue was placed into sufficient buffer containing the nisin compositions to cover the tissue, and incubated for 2 hours at 37° C. after which the tissue was removed to sufficient Phage buffer to cover the tissue. The bacteria remaining in the test solution were collected by centrifugation, washed with Phage buffer, and combined with bacteria washed from the tissue by Phage buffer. The combined samples (termed "unadhered" cells) were serially diluted and 100 μl aliquots were plated for determination of surviving bacteria.
# as §3, with “cleaned” for “cleansed”, “50” for “20”, “sodium acetate buffer,” for “Tris HCl,”, “5.0.” for “8.0.”, “containing” for “containing the”
# Coryneform bacteria = experiment: Bactericidal activity towards Coryneform bacteria; assay type: cell-based; conditions: pH 8.0, Nisin 3 μg/ml, EDTA 0 mM
# Protocol: as §1
# (§4) Incubations were performed in 20 mM TrisHCl, pH 8.0 at 37° C.
# Streptococcus agalactiae = experiment: Bactericidal activity towards Streptococcus agalactiae in milk; assay type: cell-based; conditions: for % survival at 2h: S. agalactiae in milk at 37° C., Monolaurin 0%
# Protocol: as §1
# However, the combination of the two agents, 0.1% monolaurin and nisin 0.2 μg/ml, is extremely potent towards S. agalactiae. […] Thus, when the application of nisin is limited by its available activity, a bactericide comprising nisin with a surfactant can be expected to be more useful.
# as §2
# Listeria monocytogenes [3] = experiment: Bactericidal activity towards Listeria monocytogenes in Tris buffer; assay type: cell-based; conditions: L. monocytogenes; pH 8.0, Nisin 3.0 μg/ml, EDTA 0 mM
# Protocol: as §1, §4
# Streptococcus mutans [4] = experiment: Bactericidal activity and kinetics towards Streptococcus mutans in Tris buffer; assay type: cell-based; conditions: S. mutans; pH 8.0, Nisin 0.1 μg/ml, EDTA 0 mM
# Protocol: (§5) All tests in the following examples were performed at 37° C. The efficacy of the enhanced broad range bactericides was determined by assaying bactericidal activity as measured by the percent bacterial survival after treatment with the bactericide. Generally, after incubation of a 10^7 cell per ml suspension of target species with the novel bactericide for specified lengths of time, bacteria were collected by centrifugation for 2 minutes. The bacterial pellet was washed free of the bactericide with a rescue buffer, termed herein Phage buffer (50mM Tris-HCl buffer pH 7.8, 1 mM MgSO4, 4 mM CaCl2, 0.1 M Nacl, and 0.1% gelatin), resuspended and serially diluted into Phage buffer, and 100 μl of the suspended bacteria were spread on nutrient agar plates. Surviving bacteria were determined by scoring colony forming units (CFU) after incubation for 24-48 hours at 37° C.
# The suspensions were incubated for various times ranging from 0.5 to 60 minutes with the bactericides.
# Incubations were performed in 20 mM TrisHCl, pH 7.3 at 37° C.
# E. coli = experiment: Bactericidal activity, percent bacterial survival of E. coli suspension; assay type: cell-based, Escherichia coli; conditions: EDTA 0 mM, Triton X-100 0%, 20 mM Tris pH 8.0
# Protocol: as §1, with “C.” for “C. An effective bactericide according to this invention is one which allows less than 0.1% of the initial viable count of the bacteria to survive.”
# The effects of the bactericide were measured as a function of percentage bacteria survival after 2 hours.
# Incubations were performed in 20 mM Tris, […] at 37° C.
# Streptococcus mutans [5] = experiment: Rapid bactericidal activity towards Streptococcus mutans in the presence of divalent cation, 10% Fetal Calf Serum; assay type: cell-based; conditions: S. mutans, Nisin 3, no EDTA, 0 mM
# Protocol: as §5
# Incubations performed in 10% Fetal Calf Serum at 37° C.
# Staphylococcus aureus = experiment: Bactericidal activity towards Staphylococcus aureus, percent survival; assay type: cell-based; conditions: S. aureus, EDTA 0 mM
# Protocol: as §1
# Incubations were performed in 50 mM sodium acetate buffer, pH 5.0 or 20 m
# TrisHCl buffer, pH 8.0 at 37° C.
substance,measurement,setting,value
"Nisin (ITSISLCTPGCKTGALMGCNMKTATCHCSIHVSK; not fully specified (residues 2, 5, 33, bridges); cysteine pairing not given here; UniProt P13068 24-57, looked up) [polypeptide bacteriocin with antimicrobial properties produced by strains of Streptococcus lactis; known food preservative]",% Survival 2 hr,Listeria monocytogenes [1],0.56%
same,Percentage S. typhimurium Survival at 3 hours,"S. typhimurium; Nisin 50 µg/ml, 20 mM Tris pH 8.0, 37° C",7.0%
same,Percentage S. typhimurium Survival at 3 hours,"S. typhimurium; Nisin 100 µg/ml, 20 mM Tris pH 8.0, 37° C",1.6%
same,Percentage S. typhimurium Survival at 3 hours,"S. typhimurium; Nisin […], 20 mM Tris pH 8.0, 37° C",51.3%
same,survival,"S. typhimurium; S. typhimurium, 100 μg/ml nisin in the absence of EDTA, 20 mM Tris pH 8.0",1.6%
same,% Survival at 2 hours,"S. typhimurium; S. typhimurium, pH 5.0, Nisin 100 μg/ml",0.6%
same,% Survival at 2 hours,"S. typhimurium; S. typhimurium, pH 8.0, Nisin 100 μg/ml",4%
same,Percentage S. typhimurium Survival at 3 hours,"S. typhimurium; Table 2: Nisin 10 μg/ml, Triton X-100 0%, 20 mM Tris pH 8.0",51.3%
same,Percentage S. typhimurium Survival at 3 hours,"S. typhimurium; Table 2: Nisin 50 μg/ml, Triton X-100 0%, 20 mM Tris pH 8.0",7.0%
same,Percentage S. typhimurium Survival at 3 hours,"S. typhimurium; Table 2: Nisin 100 μg/ml, Triton X-100 0%, 20 mM Tris pH 8.0",1.6%
same,Percentage S. typhimurium Survival at 3 hours,"S. typhimurium; Table 3: Nisin 10 μg/ml, Tween20 0%, 20 mM Tris pH 8.0",51.3%
same,Percentage S. typhimurium Survival at 3 hours,"S. typhimurium; Table 3: Nisin 50 μg/ml, Tween20 0%, 20 mM Tris pH 8.0",7.0%
same,Percentage S. typhimurium Survival at 3 hours,"S. typhimurium; Table 3: Nisin 100 μg/ml, Tween20 0%, 20 mM Tris pH 8.0",1.6%
same,% Survival at 2 hours,"S. typhimurium; Table 8, S. typhimurium, Nisin 100 μg/ml, BSA 0%, Tris buffer",1.6%
same,% Survival at 2 hours,K. pneumoniae; Nisin 100 μg/ml,50%
same,% Survival at 2 hours,K. pneumoniae; Nisin 300 μg/ml,38%
same,% Survival at 2 hours (Unadhered cells),"[2]; pH 5.0, Nisin 300 μg/ml",0.1%
same,% Survival at 2 hours (Unadhered cells),"[2]; pH 8.0, Nisin 300 μg/ml, 1% Bovine serum albumin",0.02%
same,% Survival at 2 hours (Unadhered cells),"[2]; pH 8.0, Nisin 300 μg/ml",7.5%
same,% Survival 2 hr,Coryneform bacteria,0.22%
same,% survival at 2h,Streptococcus agalactiae; Nisin 0.02 μg/ml,100%
same,% survival at 2h,Streptococcus agalactiae; Nisin 0.2 μg/ml,2.2%
same,bactericidal activity towards Streptococcus agalactiae,"Streptococcus agalactiae; nisin at concentrations up to 0.2 μg/ml, in milk",does not exhibit significant bactericidal activity
same,% Survival after 2 hr,Listeria monocytogenes [3],0.71%
same,% Survival after 2 hr,Streptococcus mutans [4],4.3%
same,Percentage E. coli Survival at 2 hours,E. coli; Nisin 30 μg/ml,27%
same,Percentage E. coli Survival at 2 hours,E. coli; Nisin 100 μg/ml,25%
same,Percentage E. coli Survival at 2 hours,E. coli; Nisin 300 μg/ml,8.5%
same,% survival at 1 min.,Streptococcus mutans [5],2.9%
same,% Survival 2 hr,"Staphylococcus aureus; pH 5.0, Nisin 3.0 μg/ml",0.6%
same,% Survival 2 hr,"Staphylococcus aureus; pH 8.0, Nisin 3.0 μg/ml",7.4%
